# Results as given in US9133207B2, “Tetrandrine derivatives with substituted 5-carbon, preparation method and use thereof” (Hangzhou Bensheng Pharmaceutical Co., Ltd., priority 2011, dated 2015).
# How the values were obtained:
# MG63 (osteosarcoma) = experiment: Solid tumor cell growth inhibition, MTT, 72 h (Example 7); assay type: cell-based, human; conditions: Homo sapiens; 72 h, MTT, MG-63
# Procedure: (§1) Human solid tumor cell lines: Hep-2 (laryngeal carcinoma), A549 (human lung cancer), CaES-17 (esophageal cancer cell), PC-3 (prostate cancer), CNE (nasopharyngeal carcinoma cell) and SK-OV-3 (ovarian cancer cell), all of which are purchased from China Center For Type Culture Collection; RKO (human colon adenocarcinoma cell), MGC 803 (human gastric cancer cell), MG63 (osteosarcoma), and U87 MG (malignant glioma cell), all of which are purchased from Fuxiang Bio-tech Co. Ltd., Shanghai, China; PANC-1 (pancreatic cancer), Huh? (human liver cancer cell), Becap37 (human breast cancer cell), and Hela (human cervical cancer cell), all of which are donated by Cancer Research Institute of Zhejiang University, China.
# (§2) Reagents: the same as in Example 5.
# (§3) Obtaining 4000 well-growing human solid tumor cells and inoculating them into wells of a 96-well cell culture plate. The culture medium is DMEM High Glucose cell culture medium containing 10% fetal bovine serum. The plate is placed in a carbon dioxide cell incubator (5% CO2) at 37° C. and incubated for 24 hours. After been added with tetrandrine derivatives of different concentration and mixing uniformly, the plate is placed in a carbon dioxide cell incubator (5% CO2) at 37° C. and incubated for 72 hours. Then the viable cell concentration is determined by the MTT method and the cell viability (%) after drug treatment is calculated. In this experiment, the cell viability of control group (not treated with any compound) is set as 100%.
# PC-3 (prostate cancer) = experiment: as above; assay type: cell-based, human; conditions: Homo sapiens; 72 h, MTT, PC-3
# Procedure: as §1, §2, §3
# [1] = tested on: CaES-17 (esophageal cancer cell); experiment: as above; assay type: cell-based, human; conditions: Homo sapiens, CaEs17; 72 h, MTT, CAES-17
# Procedure: as §1, §2, §3
# [2] = tested on: PANC-1 (pancreatic cancer); experiment: as above; assay type: cell-based, human; conditions: Homo sapiens; 72 h, MTT, PANC-1
# Procedure: as §1, §2, §3
# [3] = tested on: Jurkat (acute lymphoblastic leukemia, ALL); experiment: Leukemia cell growth inhibition, MTT, 72 h (Example 5); assay type: cell-based, human; conditions: Homo sapiens, Jurkat; 72 h, MTT
# Text: (§4) Leukemia cell lines: leukemia cell lines: K562/adr (drug-resistant, chronic myeloid leukemia, CML), NB4 (acute promyelocytic leukemia, AML), Kasumi-1 (acute myeloid leukemia M2 type, AML-M2), Jurkat (acute lymphoblastic leukemia, ALL), all of which are donated by Cancer Research Institute of Zhejiang University, China; and H9 (acute lymphoblastic leukemia, ALL), which is purchased from China Center for Type Culture Collection.
# (§5) Reagents: The standard sample of tetrandrine (TTD) is purchased from Ci Yuan Biotechnology Co., Ltd., Shaanxi, China; and the 5-substituted tetrandrine derivatives of the present invention.
# (§6) Obtaining 6000 well-growing leukemia cells and inoculating them into wells of a 96-well cell culture plate. The culture medium is a 1640 cell culture medium containing 10% fetal bovine serum. After adding the tetrandrine derivatives of different concentrations and mixing uniformly, placing the plate in a carbon dioxide cell incubator (5% CO2) at 37° C. and incubating for 72 hours. Then the viable cell concentration is determined by the MTT method.
# [4] = tested on: K562/adr (drug-resistant, chronic myeloid leukemia, CML); experiment: as above; assay type: cell-based, human; conditions: Homo sapiens, K562/Adr; 72 h, MTT
# Text: as §4, §5, §6
# [5] = tested on: Kasumi-1 (acute myeloid leukemia M2 type, AML-M2); experiment: as above; assay type: cell-based, human; conditions: Homo sapiens, Kasumi 1
# Text: as §4, §5, §6
# [6] = tested on: H9 (acute lymphoblastic leukemia, ALL); experiment: as above; assay type: cell-based, human; conditions: Homo sapiens; 72 h, MTT
# Text: as §4, §5, §6
# [7] = tested on: RPMI8226 (multiple myeloma); experiment: Multiple myeloma cell growth inhibition, MTT, 72 h (Example 6); assay type: cell-based, human; conditions: Homo sapiens, RPMI-8226; 72 h, MTT, RPMI8226
# Procedure: Multiple myeloma and lymphoma cell lines: RPMI8226 (multiple myeloma), purchased from Fuxiang Bio-tech Co. Ltd., Shanghai, China.
# as §2
# Obtaining 6000 well-growing leukemia cells and inoculating them into wells of a 96-well cell culture plate. The culture medium is a 1640 cell culture medium containing 10% fetal bovine serum. After adding the tetrandrine derivatives of different concentrations and mixing uniformly, placing the plate in a carbon dioxide cell incubator (5% CO2) at 37° C. and incubated for 72 hours. Then the viable cell concentration is determined by the MTT method.
# [8] = tested on: Becap37 (human breast cancer cell); experiment: Solid tumor cell growth inhibition, MTT, 72 h (Example 7); assay type: cell-based; conditions: Homo sapiens; 72 h, MTT, Becap-37
# Procedure: as §1, §2, §3
# [9] = tested on: Huh7 (human liver cancer cell); experiment: as above; assay type: cell-based; conditions: Homo sapiens; 72 h, MTT, Huh-7
# Procedure: as §1, §2, §3
# [10] = tested on: MGC 803 (human gastric cancer cell); experiment: as above; assay type: cell-based; conditions: Homo sapiens
# Procedure: as §1, §2, §3
# A549 (human lung cancer) = experiment: as above; assay type: cell-based; conditions: Homo sapiens; 72 h, MTT, A549
# Procedure: as §1, §2, §3
Compound,IC50 (MG63 (osteosarcoma)) [µg/mL],IC90 (MG63 (osteosarcoma)) [µg/mL],IC50 (PC-3 (prostate cancer)) [µg/mL],IC90 (PC-3 (prostate cancer)) [µg/mL],IC50 [1] [µg/mL],IC90 [1] [µg/mL],IC50 [2] [µg/mL],IC90 [2] [µg/mL],IC50 [3] [µg/mL],IC90 [3] [µg/mL],IC50 [4] [µg/mL],IC90 [4] [µg/mL],IC50 [5] [µg/mL],IC90 [5] [µg/mL],IC50 [6] [µg/mL],IC90 [6] [µg/mL],IC50 [7] [µg/mL],IC90 [7] [µg/mL],IC50 [8] [µg/mL],IC90 [8] [µg/mL],other results
COc1ccc2cc1Oc1ccc(cc1)C[C@H]1c3cc(c(OC)cc3CCN1C)Oc1c(OC)c(OC)c(COCc3ccc(F)cc3)c3c1[C@H](C2)N(C)CC3 [BS-TE-408],2.88,9.84,5.77,9.09,4.8,14.9,6,9.9,2.94,6.94,0.87,2.78,2.52,8,2.5,3.99,0.23,1.13,4.89,36.6,IC50 [9]: 1.84 µg/mL; IC90 [9]: 3.51 µg/mL; IC50 [10]: 2.59 µg/mL; IC90 [10]: 3.97 µg/mL; IC50 (A549 (human lung cancer)): 3.1 µg/mL; IC90 (A549 (human lung cancer)): 7.05 µg/mL
COc1ccc2cc1Oc1ccc(cc1)C[C@H]1c3cc(c(OC)cc3CCN1C)Oc1c(OC)c(OC)c(COCc3ccsc3)c3c1[C@H](C2)N(C)CC3 [BS-TE-415],1.31,4.75,3.5,5.76,1.74,5.98,2.76,4.9,2.22,5.71,0.57,2.06,1.95,6.41,1.71,2.5,0.14,0.89,1.9,3.31,IC50 [9]: 1.09 µg/mL; IC90 [9]: 1.91 µg/mL; IC50 [10]: 1.06 µg/mL; IC90 [10]: 1.9 µg/mL; IC50 (A549 (human lung cancer)): 2.44 µg/mL; IC90 (A549 (human lung cancer)): 5.61 µg/mL
COCCCOCc1c2c3c(c(OC)c1OC)Oc1cc4c(cc1OC)CCN(C)[C@H]4Cc1ccc(cc1)Oc1cc(ccc1OC)C[C@@H]3N(C)CC2 [BS-TE-416],1.08,2.49,4.19,9.49,2.3,16.6,4.63,10,3.45,11.7,0.98,5.59,2.11,8.17,2.31,4.4,0.29,2.76,1.8,4.31,IC50 [9]: 2.93 µg/mL; IC90 [9]: 5.07 µg/mL; IC50 [10]: 5.17 µg/mL; IC90 [10]: 8.33 µg/mL; IC50 (A549 (human lung cancer)): 4.05 µg/mL; IC90 (A549 (human lung cancer)): 11 µg/mL
